Experimental data from PubChem BioAssay (NCI).
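Tested at 5 concentrations; 48 h exposure; 96-well plates; endpoints linearly interpolated, else capped at highest concentration. TGI is the concentration that stops growth completely.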

Columns and labels:
Test in all cases: inhibition of tumour cell growth, NCI panel, 48 h
[1] = tested on: HCC-2998 colon
[2] = tested on: NCI-H23 lung
[3] = tested on: ACHN renal
[4] = tested on: UACC-62 melanoma
[5] = tested on: MCF7 breast
[6] = tested on: COLO 205 colon
[7] = tested on: SNB-75 CNS
[8] = tested on: SF-295 CNS
[9] = tested on: SF-539 CNS
[10] = tested on: HOP-92 NSCLC
[11] = tested on: U251 CNS
[12] = tested on: SK-OV-3 ovarian
[13] = tested on: OVCAR-5 ovarian
[14] = tested on: M14 melanoma
[15] = tested on: CAKI-1 renal
[16] = tested on: SF-268 CNS
[17] = tested on: HT29 colon
[18] = tested on: UO-31 renal
[19] = tested on: A498 renal
[20] = tested on: HCT-15 colon

| Structure (SMILES) | TGI [1] | TGI [2] | TGI [3] | TGI [4] | TGI [5] | TGI [6] | TGI [7] | TGI [8] | TGI [9] | TGI [10] | TGI [11] | TGI [12] | TGI [13] | TGI [14] | TGI [15] | TGI [16] | TGI [17] | TGI [18] | TGI [19] | TGI [20] |
| --- | --- | --- | --- | --- | --- | --- | --- | --- | --- | --- | --- | --- | --- | --- | --- | --- | --- | --- | --- | --- |
| Cc1cc(C)c(S(=O)(=O)N(CCCN)OCCCN)c(C)c1 | > 100 µM | > 100 µM | > 100 µM | > 100 µM | > 100 µM | > 100 µM | > 100 µM | > 100 µM | > 100 µM | > 100 µM | > 100 µM | > 100 µM | > 100 µM | > 100 µM | > 100 µM | > 100 µM | > 100 µM | > 100 µM |  |  |
| CCN1C(=O)N2C(OC)c3ccccc3C(Br)C2(OC)C1=O (stereo unspecified) | > 100 µM | > 100 µM |  | > 100 µM |  | > 100 µM | > 100 µM | > 100 µM |  |  | > 100 µM | > 100 µM | > 100 µM | > 100 µM | > 100 µM |  |  | > 100 µM | > 100 µM | > 100 µM |
| CC1CCN(c2cc(-c3cc4ccccc4o3)oc(=O)c2C#N)CC1 | > 100 µM | > 100 µM | > 100 µM |  |  | > 100 µM | > 100 µM | > 100 µM | > 100 µM | 79 µM | > 100 µM |  | > 100 µM | > 100 µM | > 100 µM | > 100 µM | > 100 µM | > 100 µM | > 100 µM | > 100 µM |
| CCOC(=O)[C@H]1Nc2c(cccc2[N+](=O)[O-])C2c3ccccc3CC21 (stereo partly specified) | > 100 µM | > 100 µM | > 100 µM | > 100 µM |  | > 100 µM | > 100 µM | > 100 µM | > 100 µM |  | > 100 µM |  | > 100 µM | > 100 µM | > 100 µM | > 100 µM | 74.9 µM | > 100 µM |  | > 100 µM |
| O=C(/C=C\c1ccc(/C=C/C(=O)Nc2cccc(C3=NCCCN3)c2)cc1)Nc1cccc(C2=NCCCN2)c1 | > 100 µM | > 100 µM |  |  | > 100 µM | > 100 µM | > 100 µM | > 100 µM | > 100 µM | > 100 µM | > 100 µM | > 100 µM | > 100 µM |  |  |  | > 100 µM | > 100 µM | > 100 µM | > 100 µM |
| c1csc(C(NC2=NCCO2)C2CC2)c1 (stereo unspecified) | > 100 µM | > 100 µM | > 100 µM | > 100 µM | > 100 µM | > 100 µM | > 100 µM | > 100 µM | > 100 µM | > 100 µM | > 100 µM | > 100 µM | > 100 µM |  | > 100 µM |  | > 100 µM | > 100 µM | > 100 µM | > 100 µM |
| CO/C(=N\N=C(/c1ccccc1)C(F)(F)F)c1ccncc1 |  | > 100 µM |  | > 100 µM | > 100 µM | > 100 µM | > 100 µM | > 100 µM |  | > 100 µM | > 100 µM | > 100 µM | > 100 µM | > 100 µM | > 100 µM |  | > 100 µM | > 100 µM | > 100 µM | > 100 µM |
| Fc1ccc(C(OCCN2CC3CC2CN3)c2ccc(F)cc2)cc1 (stereo unspecified) | 30.4 µM | > 100 µM | > 100 µM | 37.3 µM | > 100 µM | 33.5 µM | > 100 µM | > 100 µM | > 100 µM | > 100 µM | > 100 µM | > 100 µM |  |  | > 100 µM | > 100 µM |  |  | > 100 µM | > 100 µM |
| Cc1ccc2oc3c(ccc(=O)n3C)c(=O)c2c1 | > 100 µM | > 100 µM | > 100 µM | > 100 µM | > 100 µM | > 100 µM | > 100 µM | > 100 µM | > 100 µM | > 100 µM | > 100 µM | > 100 µM | > 100 µM | > 100 µM | > 100 µM | > 100 µM | > 100 µM | > 100 µM | > 100 µM | > 100 µM |
| Clc1cccc(C2SCc3nc4ccccc4n32)c1 (stereo unspecified) |  | 51.4 µM | 99.2 µM | 36.5 µM |  | 15.1 µM | 21.3 µM | > 100 µM | 48.2 µM | 30.4 µM | 33 µM | 52.7 µM | 95.6 µM | 50.5 µM | > 100 µM | > 100 µM | 67.2 µM |  |  | 44 µM |
